Test results as given in patent US9630977B2, “Cephalosporin derivatives and pharmaceutical compositions thereof” (Legochem Biosciences, Inc., priority 2011, dated 2017).
Values after ≈ are worked out from the molar mass of the structure shown.

Legend:
[1] = tested on: K. pneumoniae (38 clinical isolates); assay: Antibacterial activity on representative drug-resistance bacteria: number of clinical isolates per MIC value; type: cell-based; conditions: K. pneumomiae (N = 38)
Protocol: (§1) The in vitro antibacterial activity was evaluated by measuring MIC90 (ug/mL) of each of the compounds of Examples 1 to 68, which is defined as the lowest concentration of an antibiotic that will inhibit the visible growth of 90% of microorganisms after incubation as compared with a control group to which the antibiotic is not treated. MIC90 values were measured by the broth microdilution method developed by the Clinical and Laboratory Standards Institute (CLSI) (see CLSI M7-A5, Methods for Dilution Antimicrobial Susceptibility Test for Bacteria that Grow Aerobically-Fifth Edition (2000): CLSI, Villanova, Pa.).
(§2) Test compounds each (the cephalosporin derivative compounds prepared in Examples 1 to 68) were dissolved in DMSO at the concentration of 10,240 ug/mL, were diluted by two fold with DMSO, and then were diluted by twenty fold with sterilized distilled water. The final concentration in the antibacterial activity test was in the range of […] to 128 ug/mL, and the final concentration of DMSO used as an adjuvant was 2.5% (V/V).

[2] = tested on: P. aeruginosa (16 clinical isolates); assay: as above; type: cell-based; conditions: P. aeruginosa (N = 16)
Protocol: as §1, §2

[3] = tested on: A. baumannii (6 clinical isolates); assay: as above; type: cell-based; conditions: A. baumanni (N = 6)
Protocol: as §1, §2

19 clinical isolates = assay: In vitro antibacterial activity test, panel of 19 clinical isolates as a whole; type: cell-based; conditions: effect of a siderophore group, Table 1
Protocol: To evaluate antibacterial activity of each of the compounds of Examples 1 to 68, in vitro antibacterial activity test was performed.
as §1
In vitro antibacterial activity was measured with respect to the following 19 clinical isolates: M. catarrhalis; P. aeruginosa (5 strains); K. pneumoniae (6 strains); A. baumannii (3 strains); E. coli (2 strains); A. calcoaceticus; and E. cloacae.
as §2

[4] = Pharmacokinetics study in rat, IV; type: in vivo, SD rat; conditions: Rat (10 mg/kg) single IV
Protocol: Test animals: 9 week old SD rat, weight 290˜310 g; 3 rats/sample time point
Lab conditions: Temperature of 21±2° C.; humidity of 50±20%
Administration method: Injecting test compound solution through tail vein (IV)
Test method: Blood samples were taken from jugular vein at a predetermined time period for 24 hours after administration, plasma was separated, and quantified by using LC-MS/MS.

K. pneumoniae β11 = assay: In vitro antibacterial activity test (broth microdilution); type: cell-based; conditions: Klebsiella pneumoniae; K. pneumoniae β11; read-out: MIC90
Method in brief: (§3)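 MIC90 was determined by CLSI broth microdilution against clinical isolates, as the lowest concentration inhibiting visible growth of 90% of organisms relative to untreated control. Final compound concentrations spanned 0.0626–128 ug/mL with 2.5% (V/V) DMSO.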

K. pneumoniae β10 = assay: as above; type: cell-based; conditions: Klebsiella pneumoniae; K. pneumoniae β10; read-out: MIC90
Method in brief: as §3

A. baumannii 52 = assay: as above; type: cell-based; conditions: Acinetobacter baumannii; A. baumannii 52; read-out: MIC90
Method in brief: as §3

M. catarrhalis 2524 = assay: as above; type: cell-based; conditions: M. catarrhalis 2524
Method in brief: as §3

K. pneumoniae β9 = assay: as above; type: cell-based; conditions: Klebsiella pneumoniae, K. pneumoniae β9; read-out: MIC90
Method in brief: as §3

E. coli AG100 = assay: as above; type: cell-based; conditions: Escherichia coli, AG100, E. coli AG100; read-out: MIC90
Method in brief: as §3

A. baumannii 49 = assay: as above; type: cell-based; conditions: Acinetobacter baumannii; A. baumannii 49; read-out: MIC90
Method in brief: as §3

P. aeruginosa 6065Y = assay: as above; type: cell-based
Method in brief: as §3

P. aeruginosa 43 = assay: as above; type: cell-based; conditions: Pseudomonas aeruginosa; P. aeruginosa 43; read-out: MIC90
Method in brief: as §3

K. pneumoniae 2011E = assay: as above; type: cell-based; conditions: Klebsiella pneumoniae, 2011E, K. pneumoniae 2011E; read-out: MIC90
Method in brief: as §3

K. pneumoniae β14 = assay: as above; type: cell-based; conditions: Klebsiella pneumoniae, read-out: MIC90
Method in brief: as §3

P. aeruginosa 40 = assay: as above; type: cell-based; conditions: Pseudomonas aeruginosa, 40, P. aeruginosa 40; read-out: MIC90
Method in brief: as §3

[5] = tested on: A. calcoaceticus ATCC15473; assay: as above; type: cell-based; conditions: Acinetobacter calcoaceticus; A. calcoaceticus ATCC15473; read-out: MIC90
Method in brief: as §3

E. coli β4 = assay: as above; type: cell-based; conditions: Escherichia coli, read-out: MIC90
Method in brief: as §3

K. pneumoniae β13 = assay: as above; type: cell-based; conditions: K. pneumoniae β13
Method in brief: as §3

P. aeruginosa 37 = assay: as above; type: cell-based; conditions: Pseudomonas aeruginosa, 37, P. aeruginosa 37; read-out: MIC90
Method in brief: as §3

A. baumannii 46 = assay: as above; type: cell-based; conditions: Acinetobacter baumannii; A. baumannii 46; read-out: MIC90
Method in brief: as §3

P. aeruginosa 1912E = assay: as above; type: cell-based
Method in brief: as §3

E. cloacae β19 = assay: as above; type: cell-based
Method in brief: as §3

## CC(C)(O/N=C(\C(=O)N[C@@H]1C(=O)N2C(C(=O)[O-])=C(/C=C/C[n+]3cnc(N)c(NCCNC(=O)c4cc(=O)c(O)cn4O)c3)CSC12)c1csc(N)n1)C(=O)O (stereo partly drawn) [Compound 8]
[1]; MIC 0.25 ug/mL
  number of clinical isolates that showed the respective MIC value: 1
[1]; MIC 8 ug/mL
  number of clinical isolates that showed the respective MIC value: 1
[1]; MIC <0.0625 ug/mL
  number of clinical isolates that showed the respective MIC value: 1
[1]; MIC >16 ug/mL
  number of clinical isolates that showed the respective MIC value: 35
[2]; MIC 0.125 ug/mL
  number of clinical isolates that showed the respective MIC value: 2
[2]; MIC 0.25 ug/mL
  number of clinical isolates that showed the respective MIC value: 1
[2]; MIC 0.5 ug/mL
  number of clinical isolates that showed the respective MIC value: 2
[2]; MIC 1 ug/mL
  number of clinical isolates that showed the respective MIC value: 2
[2]; MIC 2 ug/mL
  number of clinical isolates that showed the respective MIC value: 2
[2]; MIC 4 ug/mL
  number of clinical isolates that showed the respective MIC value: 3
[2]; MIC 8 ug/mL
  number of clinical isolates that showed the respective MIC value: 1
[2]; MIC >16 ug/mL
  number of clinical isolates that showed the respective MIC value: 3
[3]; MIC 0.5 ug/mL
  number of clinical isolates that showed the respective MIC value: 1
[3]; MIC >16 ug/mL
  number of clinical isolates that showed the respective MIC value: 5
19 clinical isolates
  antibacterial activity (in words): significantly improved
[4]
  AUCnorm: 5.46 kg·h/L
  Cmax,norm: 19.61 kg/L
[4]; SD, plasma
  AUC: 54600 ng·h/mL
  Cmax: 196 µg/mL
  Tmax: 1.2 min
  clearance: 3 mL/min/kg
  half-life: 52.2 min
[4]; SD, plasma, read-out: Vss
  Vd: 0.09 L/kg
K. pneumoniae β11
  MIC90: 32 µg/mL (≈ 40 µM)
K. pneumoniae β10
  MIC90: < 0.0625 µg/mL
A. baumannii 52
  MIC90: > 128 µg/mL
M. catarrhalis 2524
  MIC90: 0.5 µg/mL (≈ 0.625 µM)
K. pneumoniae β9
  MIC90: 0.5 µg/mL (≈ 0.625 µM)
E. coli AG100
  MIC90: 0.0625 µg/mL (≈ 0.0781 µM)
A. baumannii 49
  MIC90: > 128 µg/mL
P. aeruginosa 6065Y
  MIC90: 4 µg/mL (≈ 5 µM)
P. aeruginosa 43
  MIC90: 1 µg/mL (≈ 1.25 µM)
K. pneumoniae 2011E
  MIC90: 1 µg/mL (≈ 1.25 µM)
K. pneumoniae β14
  MIC90: 8 µg/mL (≈ 10 µM)
P. aeruginosa 40
  MIC90: 0.5 µg/mL (≈ 0.625 µM)
[5]
  MIC90: 2 µg/mL (≈ 2.5 µM)
E. coli β4
  MIC90: 0.5 µg/mL (≈ 0.625 µM)
K. pneumoniae β13
  MIC90: 0.25 µg/mL (≈ 0.313 µM)
P. aeruginosa 37
  MIC90: 1 µg/mL (≈ 1.25 µM)
A. baumannii 46
  MIC90: 8 µg/mL (≈ 10 µM)
P. aeruginosa 1912E
  MIC90: 1 µg/mL (≈ 1.25 µM)
E. cloacae β19
  MIC90: 32 µg/mL (≈ 40 µM)
